Patent US6632832B1 (Dabur Research Foundation, priority 2002, dated 2003)
Converted amounts (≈) assume the structure as drawn.

What was measured:
[1] = system: human pancreatic cancer cells (MiaPaCa2); test: Cytotoxicity abrogation assay with intracellular blocking of PKC by Bisindolylmaleimide; type: cell-based
Experimental: (§1) Briefly, 10000 human pancreatic cancer cells (MiaPaCa2) were seeded per well in a 96-well culture plate in DMEM containing 5% FCS. All experiments were carried out in triplicate at 37° C. in CO2 incubator. The plates were incubated overnight to allow complete reattachment of the cells. Subsequently, the medium was replaced with DMEM. The cells were incubated with varying concentrations of Bisindolylmaleimide, the specific inhibitor of PKC for a period of three hours. Bisindolylmaleimide was dissolved in 1% DMSO The control cells were treated with 1% DMSO. The cells were washed with PBS, and the medium was changed to fresh DMEM.

[2] = system: Human Colon, Ovary, melanoma, Leukemia, Glioblastoma, Prostate, oral and Lung tumor cell lines; test: MTT cytotoxicity assay, summary over the tumor cell line panel; type: cell-based
Experimental: (§2) After 72 hours, the assay was terminated and percent cyotoxicities calculated.

[3] = system: B16F10 melanoma tumor xenografts; test: B16F10 melanoma xenograft model in nude mice; type: in vivo, Balb/c athymic mice; conditions: for tumor inhibition based on tumor volumes compared with untreated controls: oral gavage once a day, Day 19
Experimental: Melanoma tumor xenografts were initiated in Balb/c athymic mice by subcutaneous inoculation of a single cell suspension of B16F10 cells (10×10^6 cells/100 μL). The tumor-bearing mice were divided into three groups of 4 animals each. […] The third group served as control. […] The anti-tumor activity was monitored by measuring the tumors using a vernier caliper every fourth day and calculating volumes using the formula 0.4×W^2×L(W=smaller dia, L=larger dia,).

Acute toxicity in mice = type: in vivo; conditions: Swiss albino mice weighing 25 grams, observed for two weeks
Experimental: Acute toxicity studies were performed using two preferred routes of administration: intravenous and oral administration.

Cyclooxygenase 2 enzyme = test: COX2 activity by PGE2 quantitation in MiaPaCa2 cells; type: cell-based, human
Experimental: 1×10^6 human pancreatic cancer cells (MiaPaCa2) were plated in 6 well plates in RPMI containing 10% FCS. The cells were incubated for a period of 24 hours at 37° C. in 5% CO2. The medium was changed to DMEM without serum. […] All experiments were carried out in duplicates. […] The medium was aspirated to remove Bisindolemaleimide, and the cells were washed twice with PBS. […] The cells were incubated at 37° C. for one hour. Indomethacin at a concentration of 10 ug/ml was added to the wells to block the COX enzyme. […] The cells were lysed (2.5% dodecyltrimethylammonium) and incubated for 10 minutes at room temperature. The cell lysates were transferred to microtitre plate coated with goat anti mouse Ig coated plate. 50 microliter of PGE2 standards ranging from 2.5 to 320 pg/ml were added to the microtitre plate in duplicates. 50 microliter of mouse anti PGE2 and 50 microliter of PGE2 conjugated peroxidase was added to the wells. The plate was covered and incubated at room temperature for one hour on a microtitre plate shaker. The wells were aspirated and washed 4 times with suitable was buffer. 150 microlire of enzyme substrate was added to all the wells. […] The OD was read at 450 nm.
The levels of secreted and intracellular PGE2 were quantitated in cells treated with or without bisindolemaleimide.

[4] = system: PDGF dependent proliferation in human pancreatic cancer cells (MiaPaCa2); test: PDGF dependent proliferation, percent viable cells by MTT in sera free conditions; type: cell-based; conditions: Carvedilol 20 ug/ml for 16 hours, then varying PDGF for 48 hours
Experimental: Briefly, 10000 human pancreatic cancer cells (MiaPaCa2) were seeded per well in a 96-well culture plate in DMEM containing 5% fetal calf serum (FCS). All experiments were carried out in triplicates at 37° C. in a CO2 incubator. The cells were incubated for a period of 12 hours, washed once with PBS and the medium was changed to DMEM without FCS. […] The untreated control cells were treated with 1% DMSO in DMEM. […] The percent viable cells in absence and presence of Carvedilol was determined in an MTT assay in vitro.

KB (oral) = test: MTT cytotoxicity assay, 72 hours; type: cell-based, human; conditions: 72 h MTT
Experimental: as §2

HBL100 (breast) = test: MTT cytotoxicity assay, 72 hours; type: cell-based, human; conditions: 72 h MTT
Experimental: as §2

PA1 (ovary) = test: MTT cytotoxicity assay, 72 hours; type: cell-based, human; conditions: 72 h MTT
Experimental: as §2

DU145 (prostate) = test: MTT cytotoxicity assay, 72 hours; type: cell-based, human; conditions: 72 h MTT
Experimental: as §2

U87.MG (glioblastoma) = test: MTT cytotoxicity assay, 72 hours; type: cell-based, human; conditions: 72 h MTT
Experimental: as §2

B16F10 (melanoma) = test: MTT cytotoxicity assay, 72 hours; type: cell-based, human; conditions: 72 h MTT
Experimental: as §2

PTC (colon) = test: MTT cytotoxicity assay, 72 hours; type: cell-based, human; conditions: 72 h MTT
Experimental: as §2

MiaPaCa.2 (pancreas) = test: MTT cytotoxicity assay, 72 hours; type: cell-based, human; conditions: 72 h MTT
Experimental: as §2

L132 (lung) = test: MTT cytotoxicity assay, 72 hours; type: cell-based, human; conditions: 72 h MTT
Experimental: as §2

[5] = system: EGF dependent proliferation in human pancreatic cancer cells (MiaPaCa2); test: EGF dependent proliferation, percent viable cells by MTT in sera free conditions; type: cell-based; parameters: dose or concentration left out as unconfirmed; conditions: Carvedilol for 16 hours, then varying EGF for 48 hours
Experimental: Briefly, 10000 human pancreatic cancer cells (MiaPaCa2) were seeded per well in a 96-well culture plate in DMEM containing 5% FCS. All experiments were carried out in triplicates at 37° C. in a CO2 incubator. The cells were incubated for a period of 12 hours, washed once with PBS and the medium was changed to DMEM without Fetal calf serum (FCS). […] The untreated control cells were treated with 1% DMSO in DMEM. The cells were washed with PBS and incubated with varying concentrations of EGF in DMEM without FCS for a period of 48 hours. The percent viable cells in absence and presence of Carvedilol was determined in an MTT assay in vitro.

Protein Kinase C (PKC) = test: PKC activity ELISA on lysates of treated MiaPaCa2 cells; type: cell-based, human; conditions: 5-100 ug/ml for 15 minutes
Experimental: Briefly 0.5×10^6 cells of human pancreatic cancer cells (MiaPaCa2) were plated per well in 6 well tissue culture plates in 2 ml of DMEM containing 10% Fetal calf serum. The cells were incubated overnight at 37° C. and 5% CO2. The medium was changed to DMEM without serum. […] The control cells were treated with 1% DMSO in DMEM. […] The cells were scraped with sterile cell scrapers, and spun at 1500 rpm for 5 minutes. The cell pellet was dissolved in 1 ml of ice cold sample preparation buffer (50 mM Tris-HCl, 50 mM 2-mercaptoethanol, 10 mM EGTA, 5 mM EDTA, 1 mM PMSF, 10 mM Benzamidine, pH 7.5). The cell pellets were sonicated four to five times each with time intervals of 5-10 seconds. The cells were centrifuged at 100,000×g for a period of 60 minutes at 4° C. The supernatant was aspirated from each set of experiments. The reaction mixture for quantitation of the PKC activity contained 25 mM Tris-HCl (pH7.0), 3 mM Mgc12, 0.1 mM ATP, 2 mM CaCl2, 50 ug/ml Phosphatidylserine, 0.5 mM EDTA, 1 mM EGTA, and 5 mM 2 mercaptoethanol. The lysates from the cells not treated with Carvedilol were the control experiments. The reaction mixture was preincubated for 5 minutes at 25° C. […] The optical density was read at 492 nm, and the PKC activity expressed as percent of that in control cells.

[6] = system: human pancreatic cancer cells (MiaPaCa2); test: Cytotoxicity abrogation assay with intracellular blocking of PI3 kinase by Wortmannin; type: cell-based
Experimental: as §1, with “of Wortmannin,the” for “of Bisindolylmaleimide, the”, “of PI3 kinase” for “of PKC”, “hours. Wortmannin” for “hours. Bisindolylmaleimide”, “in 0.5% DMSO.” for “in 1% DMSO”, “with 0.5%” for “with 1%”

MOLT4 (leukemia) = test: MTT cytotoxicity assay, 72 hours; type: cell-based, human; conditions: MOLT-4 (Leukemia), 72 h MTT, Table 2
Experimental: as §2

With COc1ccccc1OCCNCC(O)COc1cccc2[nH]c3ccccc3c12 (racemic) [Carvedilol, (±)-1-(carbazol-4-yloxy)-3-[(2-(o-methoxyphenoxy)ethyl]amino]-2-propanol] the cytotoxicity at 20 µg/mL ([1]; MIA PaCa-2, 48 h, read-out: % Cytotoxicity of Carvedilol (20 ug/ml), MiaPaCa2, 48 hours, Bisindolemaleimide Nil) was 50%, the cytotoxicity at 20 µg/mL ([1]; MIA PaCa-2, read-out: % Cytotoxicity of Carvedilol (20 ug/ml), MiaPaCa2, 48 hours, preincubated with Bisindolemaleimide 1.0 uM) was 22% and the cytotoxicity at 20 µg/mL ([1]; MIA PaCa-2, read-out: % Cytotoxicity of Carvedilol (20 ug/ml), MiaPaCa2, 48 hours, preincubated with Bisindolemaleimide 2.5 uM) was 20%. For the same molecule, the cytotoxicity at 20 µg/mL ([1]; MIA PaCa-2, read-out: % Cytotoxicity of Carvedilol (20 ug/ml), MiaPaCa2, 48 hours, preincubated with Bisindolemaleimide 5.0 uM) was 20%, the “cytotoxicity at a fixed concentration (FIG. 1)” value ([2]; 20 μg/ml, all of the above-mentioned tumor cell lines, except oral) was “high cytotoxicity effect” and the ED50 values ([2]; Colon, Ovary, melanoma, Leukemia, Glioblastoma, Prostate, oral and Lung tumor cell lines) was “less than 20 μg/ml”. For the same molecule, the “tumor inhibition based on tumor volumes compared with untreated controls” value ([3]; 300 ug/day) was 37.3%, the “tumor inhibition based on tumor volumes compared with untreated controls” value ([3]; 600 ug/day) was 59.1% and the “pattern of tumor growth (FIG. 6)” value ([3]; both doses (300 and 600 ug/day oral)) was “delayed tumor growth and tumor regression”. The safe dose (Acute toxicity in mice; i.v.) was 0.15 mg, the safe dose (Acute toxicity in mice; oral) was 3 mg and the “effect on COX2 activity (FIG. 5)” value (Cyclooxygenase 2 enzyme; MiaPaCa2, 10 ug/ml and 20 ug/ml for 4 hours, secreted and intracellular PGE2) was “inhibits the COX2 activity”. The “effect on COX 2 activity after blocking of PKC” value (Cyclooxygenase 2 enzyme; MiaPaCa2 preincubated with Bisindolemaleimide (1 uM) for 4 hours) was “abrogates the effect of Carvedilol on COX 2 activity”, the “effect on PDGF dependent proliferation (FIG. 3)” value [4] was “inhibits the PDGF dependent proliferation in human pancreatic cancer cells in a dose dependent manner” and the ED50 (KB (oral); KB (Oral), Table 2) was 12.0 ± 1.8 µg/mL (≈ 29.5 µM). The ED50 (KB (oral); KB (oral)) was 12.0 ± 1.8 µg/mL (≈ 29.5 µM), the ED50 (HBL100 (breast); HBL100 (Breast), Table 2) was 29.0 ± 4.2 µg/mL (≈ 71.3 µM) and the ED50 (HBL100 (breast); HBL100 (breast)) was 29.0 ± 4.2 µg/mL (≈ 71.3 µM). It also gave an ED50 (PA1 (ovary); PA1 (ovary)) of 11.5 ± 2.1 µg/mL (≈ 28.3 µM), an ED50 (PA1 (ovary); PA-1 (Ovary), Table 2) of 11.5 ± 2.1 µg/mL (≈ 28.3 µM) and an ED50 (DU145 (prostate)) of 9.0 ± 0.9 µg/mL (≈ 22.1 µM). The ED50 (U87.MG (glioblastoma); U87.MG (glioblastoma)) was 14.5 ± 2.2 µg/mL (≈ 35.7 µM), the ED50 (U87.MG (glioblastoma); U87MG (Glioblastoma), Table 2) was 14.5 ± 2.2 µg/mL (≈ 35.7 µM) and the ED50 (B16F10 (melanoma); B16.F10 (Melanoma), Table 2) was 10.5 ± 1.7 µg/mL (≈ 25.8 µM). The ED50 (B16F10 (melanoma); B16F10 (melanoma)) was 10.5 ± 1.7 µg/mL (≈ 25.8 µM), the ED50 (PTC (colon); PTC (Colon), Table 2) was 7.0 ± 0.7 µg/mL (≈ 17.2 µM) and the ED50 (PTC (colon); PTC (colon)) was 7.0 ± 0.7 µg/mL (≈ 17.2 µM). For the same molecule, the ED50 (MiaPaCa.2 (pancreas); MiaPaCa.2 (Pancreas), Table 2) was 33.0 ± 4.6 µg/mL (≈ 81.2 µM), the ED50 (MiaPaCa.2 (pancreas); MiaPaCa.2 (pancreas)) was 33.0 ± 4.6 µg/mL (≈ 81.2 µM) and the ED50 (L132 (lung); L132 (Lung), Table 2) was 16.0 ± 3.1 µg/mL (≈ 39.4 µM). For the same molecule, the ED50 (L132 (lung); L132 (lung)) was 16.0 ± 3.1 µg/mL (≈ 39.4 µM), the “effect on EGF dependent proliferation (FIG. 2)” value [5] was “inhibits the EGF dependent proliferation in pancreatic cancer cells in a dose dependent manner” and the “effect on PKC activity (FIG. 4)” value (Protein Kinase C (PKC)) was “inhibits the PKC activity in a dose dependent manner”. The cytotoxicity at 20 µg/mL ([6]; MIA PaCa-2, 48 h, read-out: % Cytotoxicity of Carvedilol (20 ug/ml), MiaPaCa2, 48 hours, Wortamannin Nil) was 50%, the cytotoxicity at 20 µg/mL ([6]; MIA PaCa-2, read-out: % Cytotoxicity of Carvedilol (20 ug/ml), MiaPaCa2, 48 hours, preincubated with Wortamannin 0.5 nM) was 22% and the cytotoxicity at 20 µg/mL ([6]; MIA PaCa-2, read-out: % Cytotoxicity of Carvedilol (20 ug/ml), MiaPaCa2, 48 hours, preincubated with Wortamannin 1.0 nM) was 20%. For the same molecule, the cytotoxicity at 20 µg/mL ([6]; MIA PaCa-2, read-out: % Cytotoxicity of Carvedilol (20 ug/ml), MiaPaCa2, 48 hours, preincubated with Wortamannin 1.5 nM) was 19% and the cytotoxicity at 20 µg/mL ([6]; MIA PaCa-2, read-out: % Cytotoxicity of Carvedilol (20 ug/ml), MiaPaCa2, 48 hours, preincubated with Wortamannin 2.0 nM) was 18%.

In the case of COc1ccccc1OCCNC[C@@H](O)COc1cccc2[nH]c3ccccc3c12 (single isomer, unassigned) [R(+) isomer], the ED50 (KB (oral); KB (Oral), Table 2) is reported as 12.0 ± 2.6 µg/mL (≈ 29.5 µM), the ED50 (HBL100 (breast); HBL100 (Breast), Table 2) is reported as 32.8 ± 3.7 µg/mL (≈ 80.7 µM) and the ED50 (PA1 (ovary); PA-1 (Ovary), Table 2) is reported as 10.0 ± 1.5 µg/mL (≈ 24.6 µM). The ED50 (U87.MG (glioblastoma); U87MG (Glioblastoma), Table 2) was 14.5 ± 2.9 µg/mL (≈ 35.7 µM), the ED50 (B16F10 (melanoma); B16.F10 (Melanoma), Table 2) was 10.5 ± 1.6 µg/mL (≈ 25.8 µM) and the ED50 (MOLT4 (leukemia)) was 12.0 ± 1.6 µg/mL (≈ 29.5 µM). It also gave an ED50 (PTC (colon); PTC (Colon), Table 2) of 7.0 ± 0.4 µg/mL (≈ 17.2 µM), an ED50 (MiaPaCa.2 (pancreas); MiaPaCa.2 (Pancreas), Table 2) of 27.0 ± 2.7 µg/mL (≈ 66.4 µM) and an ED50 (L132 (lung); L132 (Lung), Table 2) of 16.0 ± 3.1 µg/mL (≈ 39.4 µM).
